The values that follow come from US20060205787A1, “Methods and compositions using 4-amino-2-(3-methyl-2,6-dioxopiperidin-3-yl)-isoindole-1,3-dione” (priority 2005, published 2006).

For orientation: melting point means the temperature, or range, at which the solid turns liquid. With `CC1(N2C(=O)c3cccc(NC(=O)CN)c3C2=O)CCC(=O)NC1=O.Cl` (stereo not drawn), the melting point lay in the range of 111 to 113 °C.
For the molecule `C[C@]1(N2C(=O)c3cccc(NC(=O)CN)c3C2=O)CCC(=O)NC1=O.Cl`, the melting point was > 260 °C.
Molecule `C[C@]1(N2C(=O)c3cccc(N)c3C2=O)CCC(=O)NC1=O` [Example 5.1.11, (3S)-4-Amino-2-(3-Methyl-2,6-Dioxopiperidin-3-yl)-Isoindole-1,3-Dione] displayed a melting point of 235 to 237 °C.
